Columns and labels:
[1] = tested on: rats, dogs, cats and rabbits; conditions: prior art; cited from earlier work
skin = assay: Handling hazard observed in synthesis; conditions: observation in synthesis
[2] = tested on: genetically hypertensive rats; assay: Blood pressure change after oral dosing (intra-arterial cannula and transducer); type: in vivo, rat; conditions: P.O. 50 mg./kg.; for change in vivo at 50 mg/kg: Rattus norvegicus, po, + increase, - decrease in b.p., tested as hydrochloride salts
Method: The blood pressure of unanesthetized rats and dogs was measured directly by means of a transducer attached to an intra-arterial cannula and in anesthetized dogs by a mercury manometer attached to a carotid cannula.
The compounds of the instant invention were tested as the hydrochloride salts by the above method in genetically hypertensive rats in doses of 50 mg./kg. orally.

| Structure (SMILES) | change in vivo at 50 mg/kg [2] [%] | further results |
| --- | --- | --- |
| c1ccc2c(c1)CN1CCNC1=N2 |  | antihypertensive activity [1]: potent antihypertensive activity |
| Cc1cccc([N+](=O)[O-])c1CCl [2-Methyl-6-nitrobenzyl chloride] |  | lachrymator and skin irritant (skin): strong lachrymator and skin irritant |
| O=C1CCN2Cc3cc(Br)ccc3N=C2N1 [Compound 21, 8-Bromo-6-[H]-1,2,3,4-tetrahydropyrimido[2,1-b]quinazolin-2-one] |  | Blood Pressure % Change Rats column: toxicity in words [2]: Toxic |
| COc1cccc2c1CN1CCC(=O)NC1=N2 [Compound 25] | 5 ± 3 |  |
| COc1ccc2c(c1)CN1CCC(=O)NC1=N2 [Compound 26] | 19 ± 6 |  |
| COc1cccc2c1N=C1NC(=O)CCN1C2 [Compound 27] | -1 ± 4 |  |
| COc1cc2c(cc1OC)N=C1NC(=O)CCN1C2 [Compound 28] | -7 ± 2 |  |
